Test results: patent publication US11059795B2, “Androgen receptor modulators and methods for their use” (ESSA Pharma, Inc., priority 2018, dated 2021)

What was measured:
[1] = Microsomal stability assay, rat liver microsomes; type: in vitro ADME; conditions: pH 7.4, read-out: Liver microsome T½ (min) Rat
Experimental: (§1) Microsomal stability assay is a widely used in vitro model to characterize the metabolic conversion by phase I enzymes, such as cytochrome P450 (CYP) enzymes. Since metabolism is known to be highly variable in different species, microsomal stability assay is commonly run in multiple species. Metabolic stability of testing compound can be evaluated using human, rat, mouse, or other animal liver or intestine microsomes to predict intrinsic clearance.
(§2) The assay was carried out in 96-well microtiter plates at 37° C. Reaction mixtures (25 μL) contained a final concentration of 1 μM test compound, 0.5 mg/mL liver microsomes protein, and 1 mM NADPH and/or 1 mM UDPGA (with alamethicin) in 100 mM potassium phosphate, pH 7.4 buffer with 3 mM MgCl2. The incubation was done with N=1, but duplicate incubation at each time point can be prepared if necessary. At each of the time points (for example, 0, 15, 30, and 60 minutes), 150 μL of quench solution (100% acetonitrile with 0.1% formic acid) with internal standard was transferred to each well. Besides the zero minute controls, mixtures containing the same components except the NADPH can also be prepared as the negative control. Verapamil was included as a positive control to verify assay performance. Plates were sealed, vortexed, and centrifuged at 4° C. for 15 minutes at 4000 rpm. The supernatant is transferred to fresh plates for LC/MS/MS analysis.
(§3) Summarized conditions: [Compound]=[…], [LM]=0.5 mg/mL, [NADPH]=1 mM and/or [UDPGA]=1 mM, Buffer=100 mM Potassium Phosphate, pH 7.4 with 3 mM MgCl2, Time=0, 15, 30, and 60 min, and Temperature=37° C.
(§4) All samples were analyzed on LC/MS/MS using an AB Sciex API 4000 instrument, coupled to a Shimadzu LC-20AD LC Pump system. Analytical samples were separated using a Waters Atlantis T3 dC18 reverse phase HPLC column (20 mm×2.1 mm) at a flow rate of 0.5 mL/min. The mobile phase consisted of 0.1% formic acid in water (solvent A) and 0.1% formic acid in 100% acetonitrile (solvent B).
(§5) The extent of metabolism is calculated as the disappearance of the test compound, compared to the 0-min time incubation. Initial rates are calculated for the compound concentration and used to determine half-life (t½) values and subsequently, the intrinsic clearance (Clint). Clint=(0.693)(1/t½ (min))(g of liver/kg of body weight)(mL incubation/mg of microsomal protein)(45 mg of microsomal protein/g of liver weight)

LNCaP tumors = assay: LNCaP xenografts model in castrated male NCG mice; type: in vivo; conditions: Table 4; extrapolated Cmin in efficacy
Experimental: Tumor growth was measured in male NCG mice bearing LNCaP tumors. Castration was performed when tumors reached ˜100 mm^3 and dosing (60 mg/kg PO qd) started 1 week after castration. […] Individual tumor volume change from baseline measured at the end of the experiment.

[2] = Hepatocyte stability assay, human hepatocytes; type: in vitro ADME; conditions: cryopreserved hepatocytes, read-out: Hepatocytes T½ (min) Human
Description: The […] of in vitro intrinsic clearance (Clint) for drug candidates in the early discovery stage is common practice in the pharmaceutical industry. The Clint values of drug candidates can help to confirm whether metabolism is the main clearance pathway when it is compared with the total body clearance in vivo. Hepatocytes are among the routinely used in vitro systems for measuring clearance. Hepatocytes have been reported to retain most of the phase I and phase II metabolic activities, and therefore, it is a useful tool to estimate the intrinsic clearance for potential drug candidates.
Metabolic stability of testing compound were be evaluated using human and mouse hepatocytes and can also be use rat, mouse, or other animal hepatocytes to predict intrinsic clearance. Cryopreserved hepatocytes were removed from the liquid nitrogen tank and thawed in a 37° C. water bath. As soon as the cells pulled away from the vial wall, they were decanted into 48 ml of warm HT medium. Cells were centrifuged for four minutes at 420 rpm (50 g). After removing the supernatant, pellet was re-suspended in warm DMEM medium. Cell density was counted by a hemacytometer.
The assay was carried out in 96-well microtiter plates. Compounds were incubated for 0, 60, 120, and 180 minutes at 37° C. with hepatocytes. Reaction mixtures (50 μL) contained a final concentration of 1 μM test compound, 0.5 million cells/mL hepatocytes in the DMEM medium. At each of the time points (for example, 0, 1, 2, and 3 hours), 200 μL of quench solution (100% acetonitrile with 0.1% formic acid) with internal standard was transferred to each well. Midazolam was included as a positive control to verify assay performance. Plates were sealed and centrifuged at 4° C. for 15 minutes at 4000 rpm. The supernatant is transferred to fresh plates for LC/MS/MS analysis.
Summarized conditions (customizable): [Compound]=[…], Positive control: midazolam and/or naloxone, [Hepatocyte]=0.5 million cells/Ml, time=0, 60, 120, and 180 min, t=37° C.
as §4
The extent of metabolism was calculated as the disappearance of the test compound, compared to the 0-min control reaction incubations. Initial rates were calculated for the compound concentration and used to determine t½ values and subsequently, the intrinsic clearance, Clint. Clint=(0.693)(1/t½(min))(mL incubation/million cells)

[3] = Microsomal stability assay, human liver microsomes; type: in vitro ADME; conditions: pH 7.4, read-out: Liver microsome T½ (min) Human
In short: (§6)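 Compound at 1 μM was incubated at 37° C with 0.5 mg/mL liver microsomes and 1 mM NADPH and/or 1 mM UDPGA (with alamethicin) in 100 mM potassium phosphate pH 7.4, 3 mM MgCl2. Samples were taken at 0, 15, 30 and 60 min and measured by LC/MS/MS. t½ came from compound loss relative to 0 min, and Clint was scaled with 45 mg microsomal protein/g liver.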

[4] = Microsomal stability assay, dog liver microsomes; type: in vitro ADME; conditions: pH 7.4, read-out: Liver microsome T½ (min) Dog
Experimental: as §1, §2, §3, §4, §5

[5] = In vivo pharmacokinetics in plasma after oral gavage (PO) in male CD-1 mice; conditions: 5 mg/kg PO, Table 4
Experimental: The purpose of this study is to determine the pharmacokinetics of the tested compounds in plasma, following oral gavage administration (PO) to male CD-1 mice.
Animal Husbandry: Animals were group housed during acclimation and the study. The animal room environment were controlled (target conditions: temperature 18 to 26° C., relative humidity 30 to 70%, 12 hours artificial light and 12 hours dark). Temperature and relative humidity were monitored daily. Animals were fasted at least 12 hours prior to the administration. All animals had access to Certified Rodent Diet ad libitum 4 hours post dosing.
Dose Formulation: prepared 85-100 uL of a stock solution of representative compounds of the disclosure in DMSO at 50 mM; 1.5% v/v of Tween 80 were added and mixed gently; 95.5% v/v saline was added gently to the organic phase. The solution was mixed slowly by reverse pipetting to get a clear solution.
Dose Administration: the dose formulations were administered via oral gavage per facility SOPs. The dose volume were determined by the animals' body weight collected on the morning of dosing day
Sample Collection: blood collection (about 0.05 mL per time point) was performed from saphenous vein of each animal into polypropylene tubes at each timepoints (0, 0.25, 0.5, 1, 2, 4, 8, 12, and 24 hr). All blood samples were transferred into pre-chilled tubes containing 2 μL of K2-EDTA (0.5M) and placed on wet ice until centrifugation. Each collected blood sample was in the wet-ice before centrifugation. Each collected blood was under centrifugation for 15 minutes at 4° C. and 3000 g for plasma collection. Plasma samples were stored in polypropylene tubes, quickly frozen over dry ice and kept at −70±10° C. until LC/MS/MS analysis.
Bioanalytical analysis: A LC-MS/MS method for the quantitative determination of tested compound in biological matrix were developed under non-GLP compliance. A calibration curve with at least 7 non-zero calibration standards were applied for the method including LLOQ.
Plasma concentration versus time data were analyzed by non-compartmental approaches using the Phoenix WinNonlin 6.3 software program. Cl, Vdss, C0, Cmax, Tmax, T^1/2, AUC(0-t), AUC(0-inf), MRT(0-t), MRT(0-inf), % F (oral availability) and graphs of plasma concentration versus time profile were reported.

[6] = Microsomal stability assay, monkey liver microsomes; type: in vitro ADME; conditions: pH 7.4, read-out: Liver microsome T½ (min) Monkey
Experimental: as §1, §2, §3, §4, §5

[7] = Microsomal stability assay, mouse liver microsomes; type: in vitro ADME; conditions: pH 7.4; mouse liver microsomes; read-out: Liver microsome T½ (min) Mouse
In short: as §6

half-life at 1 μM [1]: > 120 min
Cmin at 5 mg/kg PO (LNCaP tumors): 22.8 µM
half-life at 1 μM [2]: > 360 min
half-life at 1 μM [3]: > 120 min
half-life at 1 μM [4]: > 120 min
Cmin at 5 mg/kg PO [5]: 3.80 µM
half-life at 1 μM [6]: > 120 min
half-life at 1 μM [7]: > 120 min
SMILES: CNC(=O)c1ccc(N2C(=S)N(c3ccc(C#N)c(C(F)(F)F)c3)C(=O)C2(C)C)cc1F [Enzalutamide, enzalutamide, reference compound]
